This is an account of results in a melting point compilation (Tetko et al.; mined from patent text by program, amines drawn as free bases though some values may be those of a salt).

Regarding `CCCN(c1ccncc1)N1C(=O)C2(Cc3ccccc3C2)c2ccccc21`, the melting point lay within 159 to 161 °C.
The compound `CN(C)CCc1cccc2ccc(CS(=O)(=O)N3CCOCC3)cc12` gave a melting point of 114 to 117 °C.
To `O=C(c1ccccc1)c1cc2ccnc(Cl)c2[nH]1` belongs 152 to 153 °C; to `COC(=O)c1ccc(/C=C/c2nc(-c3ccccc3)c(C)s2)cc1`, 156 to 157 °C; to `CCOc1ccc(C2=NN(C(=O)c3cccc(N)c3)CCC2)cc1OCC`, 162 to 163 °C.
As for `O=C(Nc1c[nH]nc1C(=O)NCCSc1ccccc1)c1ccccn1`, the melting point fell in the range of 180 to 181 °C.
As to `Cn1c(NO)cc(=O)n(C2CCCCC2)c1=O`, the melting point was in the range of 153 to 155 °C.
To `ClC1=Nc2ccccc2Sc2c1csc2Cl` belongs 163 to 165 °C.
Then `O=Cc1cnc(Nc2n[nH]c3ccc(-c4ncccc4Cl)cc23)s1`, with 223 to 224 °C.
Consider `CCn1c(=O)c(=O)[nH]c2cc([N+](=O)[O-])c(-n3cccc3)cc21`, for which the melting point is above 300 °C.
To `COCC(=O)Nc1ccc(-c2ccncc2)cc1` belongs 177 to 178 °C; to `O=C(c1cccc(C(F)(F)F)c1F)N1CCN(Cc2cncc(Nc3cc[nH]n3)n2)CC1`, 160 to 163 °C; to `CC(C)c1ccc(C(=O)CCl)cc1S(N)(=O)=O`, 141 °C.
On to `COC(=O)c1cccc(Nc2ccc(OC)cc2)c1`, for which the melting point came out at 120 °C.
In turn, `CN(C)C(=Cc1ccccc1[N+](=O)[O-])C(=O)CN1C(=O)c2ccccc2C1=O` had a melting point of 230 to 233 °C.
For the compound `CCCCCCn1cnc(NC)c1C(=O)NCCCCCCOc1ccc(Cl)cc1`, the melting point fell in the range of 55 to 56 °C.
Then `COC(=O)CNC(=O)[C@H](CSC(=O)c1ccccc1)NC(=O)CNC(=S)CC(=O)c1ccccc1`, with 181 to 183 °C; and `O=C(NCCc1ccccc1)Nc1ccc(CN2C(=O)[C@H]3CCC[C@H]3N(C(=O)CCl)c3ccccc32)cc1` (relative stereo), with 224 to 226 °C; and `O=C1CCN(Cc2ccccc2)CC1C1c2ccccc2Oc2ccccc21` (configuration not stated), with 124 to 125 °C.
To `COc1cc(N2CCCN(C3CCN(C)CC3)CC2)ccc1Nc1ncc2ccc(-c3ccccc3N(C)S(C)(=O)=O)n2n1` belongs 90 to 97 °C.
`O=[N+]([O-])c1c(Cl)ccc(S(=O)(=O)Oc2ccccc2)c1Cl` came in with a melting point of 91 °C.
To `OC(c1ccccc1)(c1cccs1)C1CCN(CCc2ccccc2)CC1` (configuration not stated) belongs 143 to 144 °C; to `Nc1ccc2c(c1)ncn2-c1ccccc1`, 272 to 274 °C.
With `CCO[C@@H](Cc1ccc(-c2nc([N+](=O)[O-])nn2C)cc1)C(=O)OC`, the melting point was 119 °C.
Then `O=C1c2ccc(NC(=O)C3CCCCC3)cc2C(=O)c2cc(NC(=O)C3CCCCC3)ccc21`, with 269 °C; and `COc1ccc(N2CCN(c3c(C)c(C)c4c(c3C)CC(C)(CN3CCC5(CC3)OCCO5)O4)CC2)cc1` (configuration not stated), with 165 to 167 °C; and `CC(=O)OCC1OC(OC2C(COC(C)=O)OC(O)(Br)C(OC(C)=O)C2OC(C)=O)C(OC(C)=O)C(OC(C)=O)C1OC(C)=O` (configuration not stated), with 97 to 99 °C.
To `CC(=O)Nc1c(C(=O)Cc2ccccc2)[nH]c2cc(Cl)ccc12` belongs 258 to 259 °C.
In the case of `COc1cc(N(C)C)nc(N2CCN(Cc3ccc(CNC(C)=O)cc3)CC2)n1`, the melting point was in the range of 115 to 118 °C.
The compound `COc1ccc(-c2ccc3ccc(N)nc3n2)cc1` came in with a melting point of 220 °C.
Then `COC(=O)CCCCCCCNC(=O)C(CO)NS(=O)(=O)c1ccc(Cl)cc1` (racemic), with 88 to 92 °C.
Then `CN(CC(=O)OCCCCNc1cccc2c1C(=O)c1ccccc1C2=O)C(=O)OC(C)(C)C`, with 90 °C.
Then `O=C1Cc2cc(C(=O)N3CCN(Cc4ccccc4)CC3)ccc2N1`, with 151 to 153 °C.
In turn, `Oc1ccc(C2(c3ccc(O)cc3)CCC(c3ccccc3)CC2)cc1` had a melting point of 262 to 263 °C.
Then `Cc1c(NC(=O)c2ccc(-c3ccccc3)cc2F)ccc2cc(CN3CCCC3)cnc12`, with 166 to 168 °C.
On to `CCCCCCCCCCCCCCCC(O)=S`, for which the melting point lay within 64 to 66 °C.
With `Nc1c2c(nc3cccc(Cl)c13)C(=O)CCC2`, the melting point was 205 °C.
To `O=c1[nH]c(=Cc2ccc3ccccc3n2)c(=O)[nH]c1=Cc1ccc(Cl)cc1` belongs 348 to 349 °C.
For `N#Cc1nn(-c2c(Cl)cc(C(F)(F)F)cc2Cl)c(Cl)c1C=O`, the melting point is 145 to 146 °C.
To `CC(C)(C(=O)O)n1c(=O)[nH]c2ccc(F)cc2c1=O` belongs 249 to 253 °C; to `CCCCCCCCCCCCCCCCCCOC(=O)c1cc(C(=O)OCCCCCCCCCCCCCCCCCC)c(C(=O)O)cc1C(=O)O`, 133 to 137 °C.
To `CCC(=O)Nc1cc(-c2c(-c3cccc(Cl)c3)nc3cccnn23)ccn1` belongs 192 to 193 °C.
To `O=S1(=O)CCC(=S)Nc2ccc(Cl)cc2C1c1ccccc1F` (configuration not stated) belongs 226 °C; to `Cc1ccc(CC2CCN(CCS(=O)c3ccc4[nH]c(=O)oc4c3)CC2)cc1` (configuration not stated), 177 to 179 °C.
`COc1ccc(C2(c3ccc(OC)cc3)CCN(CC[C@@H]3C=C4c5cccc6[nH]cc(c56)C[C@H]4N(C)C3)CC2)cc1` had a melting point of 184 to 187 °C.
To `CC(=O)NCc1ccc(CN2CCN(c3ccccc3)CC2)cc1` belongs 135 to 136 °C; to `CC(C)(C)OC(=O)N1CCn2c(c(C(N)=O)c(Cl)c2-c2ccccc2)C1`, 183 to 185 °C; to `Cc1ccc(-c2cc[nH]c2)cc1`, 92 to 93 °C.
Then `Cc1cc(OCC(=O)c2ccc(C(C)C)cc2)cc(C)c1C`, with 96 to 98 °C; and `CCCCOc1ccc(S(=O)(=O)C2(C(=O)NO)CCN(Cc3ccc(OCCN4CCCCC4)cc3)CC2)cc1`, with 155 °C; and `N#Cc1cc2c(=O)c3ccccc3ccn2c1`, with 197 °C.
Then `CC(=O)Nc1cnc(Br)c(N)n1`, with 218 to 221 °C; and `CCCc1nc(C(=O)C(C)(C)C)c(C#N)[nH]1`, with 176 to 178 °C.
`CCCc1nc2c(N)nc(C)c(C)c2n1CCCC(=O)N1CCOCC1` displayed a melting point of 164 to 165 °C.
To `C[C@@H]1C(=O)N(CC(=O)CCc2ccccc2)[C@H]1SCc1ccccc1` (relative stereo) belongs 69 to 71 °C; to `N#Cc1c(N2CCN(C(=O)c3cccs3)CC2)c2cc(Cl)ccc2n(Cc2ccc(F)cc2)c1=O`, 253 °C.
Regarding `CC1=C(c2ccccc2)C(=O)N(C(C)(C)c2cc(Cl)c(F)c(Cl)c2)CC1`, the melting point was in the range of 154 to 159 °C.
To `O=C(Nc1ccc2ccc(Cl)nc2n1)C1CCC1` belongs 192 °C; to `CN1CCN(c2cccc3c2C[C@H](NC(=O)c2ccc(OC(F)(F)F)cc2)CO3)CC1`, 192 to 193 °C; to `Cc1[nH]c(=O)n(C)c1-c1cc(C(C)(C)C)c(O)c(C(C)(C)C)c1`, 285 to 286 °C.
For `CCOC(=O)c1ccc(-c2csc(-c3ccc(C(F)(F)F)cc3)n2)cc1`, the melting point lay within 163 to 164 °C.
To `COc1ccc(C(=O)Nc2c(Cl)cncc2Cl)c2c1OCC2CC(=O)OCc1ccccc1` (configuration not stated) belongs 198 to 205 °C; to `Cc1cc(F)c(N)cc1-n1cc(C(=O)O)c(=O)c2cc(F)c(N)c(C)c21`, above 240 °C.
To `COc1ccc(SC(C)(Cc2ccccc2)C(=O)NO)cc1` (configuration not stated) belongs 88 °C.
For the compound `Nc1nc2ccccc2c2c1ncn2CCSc1ccccc1`, the melting point was 233 to 235 °C.
Then `CC(=O)Oc1cc2occ(C=O)c(=O)c2cc1OC(C)=O`, with 133 to 135 °C; and `CC(=O)Oc1cc(OC(C)=O)cc(OC(C)=O)c1`, with 105 to 106 °C.
To `C=CCc1cc2c(c(CC=C)c1O)CCC(=O)N2CC(O)CC` (configuration not stated) belongs 115 to 116 °C; to `CCCCCCCCCCCCCCCC(=O)n1nnnc1C(F)(F)F`, 66 to 69 °C; to `CN(C(=S)c1ccc([N+](=O)[O-])cc1)C1CCN(C2CCCCC2)C1` (configuration not stated), 108 to 110 °C.
To `O=C1CC[C@@H]([N+](=O)[O-])[C@H](c2ccccc2)N1` (relative stereo) belongs 174 to 175 °C; to `Cc1cc(Cl)cc(Cl)c1N1CCn2c1nc1c(Cl)ccc(C(O)(C3CC3)C3CC3)c12`, 193 to 196 °C.
`Cc1ccc2c(c1)nnn2C(=O)N(c1ccccc1)c1ccccc1` displayed a melting point of 132 to 133 °C.
As for `CCc1nc(-c2ncn(-c3cccc(O)c3)c2C)no1`, the melting point was 226 to 227 °C.
Then `O=Cc1ccccc1C=C1c2ccccc2CCc2ccccc21`, with 199 °C.
For the compound `CC(C)(C)OC(=O)N1CCc2cc(OCc3ccccc3)c(OCc3ccccc3)cc2C1Cc1ccc(NC(=O)c2ccccc2)c(I)c1` (configuration not stated), the melting point lay within 151 to 153 °C.
`OC1CCN(c2nnc(Cl)c3ccccc23)CC1` gave a melting point of 139 to 142 °C.
Then `CC(O)Cc1cccc(S(N)(=O)=O)c1` (configuration not stated), with 149 to 150 °C.
Then `COc1ccc(N2CCN(c3c(C)c(C)c4c(c3C)C(N3CCCCC3)C(C)(C)O4)CC2)cc1OC` (configuration not stated), with 134 to 135 °C; and `CN(C)CCNC(=O)Cn1c(-c2ccc(Br)cc2)nc2cccnc21`, with 195 to 197 °C; and `COC(=O)c1ccccc1S(=O)(=O)NC(=O)Nc1nc(Cl)cn(C)c1=O`, with 213 to 214 °C.
Then `COC(=O)c1cccc(NC(N)=S)c1`, with 171 to 172 °C; and `CC(C)N1CCC(CNc2ccc(Cl)cc2C(=O)Nc2ccccn2)CC1`, with 118 to 120 °C; and `COc1ccc(-c2cnc3cc4cn(CCOC(C)=O)nc4cc3n2)cc1F`, with 175 to 178 °C.
`N#CCOc1cc(O)ccc1-c1nc2nccnc2[nH]1` displayed a melting point of 232 to 233 °C.
As for `COc1c(N2CCN(C)CC2)c(F)cc2c(=O)c(C(=O)O)cn(C3CC3)c12`, the melting point lay within 221 to 222 °C.
Then `C#CCNC(=C[N+](=O)[O-])NCCSCc1nccs1`, with 121 to 123 °C.
